Measurements as given in publication PMC9673804, “Design, synthesis and antitumor evaluation of novel pyrazolo[3,4-d]pyrimidines incorporating different amino acid conjugates as potential DHFR inhibitors” (Journal of Enzyme Inhibition and Medicinal Chemistry, 2022).
“And” between values parts separate entries of the source, which are not always exact repeats. Identical values can stand only once.

Tests used:
[1] = test system: cervical carcinoma (HeLa); assay: SRB cytotoxicity assay, HeLa; type: cell-based; conditions: Homo sapiens, HeLa cells
[2] = test system: human prostate cancer (PC-3); assay: SRB cytotoxicity assay, PC-3; type: cell-based; conditions: PC-3 cells
Description: (§1) The SRB colorimetric assay was employed to assess the synthesized compounds’ cytotoxic effects on several cancer cell lines (Table 1)[11–14]. […] Furthermore, the effect of tested compounds was evaluated on the normal immortalized HPDE cell line.
(§2) Sulforhodamine B (SRB) assay was employed to assay in-vitro antitumor activities of all the synthesised compounds as describer previously. […] The cell lines were obtained from the American Type Culture Collection (Rockville, USA).

[3] = test system: colorectal carcinoma (HCT-116); assay: SRB cytotoxicity assay, HCT-116; type: cell-based; conditions: Homo sapiens, HCT-116 cells
Description: as §1, §2

[4] = test system: pancreatic human cancer cell lines (BxPC-3); assay: SRB cytotoxicity assay, BxPC-3; type: cell-based; conditions: BxPC-3 cells
Description: as §1, §2

[5] = test system: human hepatocellular carcinoma (HepG-2); assay: SRB cytotoxicity assay, HepG-2; type: cell-based; conditions: HepG2, HepG-2 cells
Description: as §1, §2

[6] = test system: mammary gland breast cancer (MCF-7); assay: SRB cytotoxicity assay, MCF-7; type: cell-based; conditions: Homo sapiens, MCF7, MCF-7 cells
Description: as §1, §2

human DHFR enzyme = molecular target: T1, human DHFR enzyme (Homo sapiens, UniProt P00374); assay: Elisa assay of human DHFR enzyme; type: biochemical; conditions: for IC50: DHFR ELISA kit, triplicate; for inhibition at 0.1 µM: conc 0.1 uM; for inhibition at 1 µM: conc 1 uM; for inhibition at 10 µM: conc 10 uM; for inhibition at 100 µM: conc 100 uM
T1 construct: purchased MyBioSource MBS9312476
T1 sequence (P00374 1-187): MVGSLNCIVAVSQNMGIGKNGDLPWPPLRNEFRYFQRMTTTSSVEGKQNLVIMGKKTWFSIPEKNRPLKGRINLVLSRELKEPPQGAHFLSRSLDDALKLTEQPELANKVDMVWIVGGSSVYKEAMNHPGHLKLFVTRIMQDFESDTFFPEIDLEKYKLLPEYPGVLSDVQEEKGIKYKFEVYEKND
Description: Enzyme-linked immunosorbent assay (ELISA) assay technique was used to evaluate the anti-DHFR effects of all the synthesised compounds on as described previously. The DHFR ELISA kit (MyBioSource, MBS9312476 San Diego, CA, USA) was used according to the manufacturer instructions. […] The test was repeated in triplicate, and the significance was assessed by one-way ANOVA test followed by Tukey’s posttest, where p < 0.05 was considered significance.

[7] = test system: normal immortalised pancreatic cell line (HPDE); assay: SRB cytotoxicity assay, normal HPDE cells; type: cell-based; conditions: normal immortalized HPDE cell line
Description: as §1, §2

| IC50 (human DHFR enzyme) | inhibition at 0.1 µM (human DHFR enzyme) [%] | inhibition at 1 µM (human DHFR enzyme) [%] | inhibition at 10 µM (human DHFR enzyme) [%] | inhibition at 100 µM (human DHFR enzyme) [%] | Compound | IC50 [1] [µM] | IC50 [2] [µM] | IC50 [3] [µM] | IC50 [4] [µM] | IC50 [5] [µM] | IC50 [6] [µM] | IC50 [7] [µM] |
| --- | --- | --- | --- | --- | --- | --- | --- | --- | --- | --- | --- | --- |
| 7.99 ± 0.16 µM | 17 | 29 | 61 | 89 | O=C(c1ccc(Nc2ncnc3c2cnn3-c2ccccc2)cc1)n1nnc2ccccc21 [Compound 6, {1H-benzo[d][1,2,3]triazol-1-yl}{4-[(1-phenyl-1H-pyrazolo-[3,4-d]pyrimidin-4-yl)-amino]phenyl}-methanone] | 15.1 ± 1.21 | 14.9 ± 1.24 | 17.3 ± 2.18 | 14.2 ± 1.36 | 13 ± 1.86 | 11.9 ± 1.1 | > 50 |
| 1.34 ± 0.03 µM | 36 | 52 | 73 | 86 | O=C(NC(Cc1ccc(O)cc1)C(=O)O)c1ccc(Nc2ncnc3c2cnn3-c2ccccc2)cc1 (stereo not drawn) [Compound 7m, 3-(4-Hydroxyphenyl)-2-{4-[(1-phenyl-1H-pyrazolo[3,4-d]pyrimidin-4-yl)amino]benzamido}-propanoic acid] | 11.8 ± 1.13 | 12.7 ± 1.87 | 13.3 ± 2.21 | 12 ± 1.14 | 14.2 ± 0.98 | 11.3 ± 1.28 | > 50 |
| 8.47 ± 0.18 µM | 21 | 36 | 54 | 81 | CSCCC(NC(=O)c1ccc(Nc2ncnc3c2cnn3-c2ccccc2)cc1)C(=O)O (stereo not drawn) [Compound 7h, 4-(Methylthio)-2-{4-[(1-phenyl-1H-pyrazolo[3,4-d]pyrimidin-4-yl)amino]benzamido}butanoic acid] | 18 ± 1.2 | 17 ± 2.02 | 19.3 ± 0.85 | 17.9 ± 1.03 | 17 ± 0.92 | 20 ± 2.01 | > 50 |
| < 1 µM and ~0.66 µM and 0.66 µM | 34 | 68 | 81 | 92 | O=C(NC(Cc1ccccc1)C(=O)O)c1ccc(Nc2ncnc3c2cnn3-c2ccccc2)cc1 (stereo not drawn) [Compound 7l, 3-Phenyl-2-{4-[(1-phenyl-1H-pyrazolo[3,4-d]pyrimidin-4-yl)amino]benzamido}propanoic acid] | 9.05 ± 1.2 | 10.1 ± 0.9 | 13 ± 0.89 | 11.5 ± 0.76 | 13.2 ± 1.29 | 10.7 ± 1.09 | > 50 |
| 7 ± 0.17 µM | 21 | 37 | 60 | 77 | O=C(NC(Cc1c[nH]c2ccccc12)C(=O)O)c1ccc(Nc2ncnc3c2cnn3-c2ccccc2)cc1 (stereo not drawn) [Compound 7k, 3-(1h-Indol-3-yl)-2-{4-[(1-phenyl-1H-pyrazolo[3,4-d]pyrimidin-4-yl)amino]benzamido}propanoic acid] | 19.5 ± 1.1 | 19.9 ± 1.35 | 18 ± 1.23 | 19.1 ± 1.23 | 25.54 ± 0.14 | 28.9 ± 1.91 | > 50 |
| < 1 µM and 0.54 µM | 41 | 64 | 80 | 93 | O=C(O)C1CCCN1C(=O)c1ccc(Nc2ncnc3c2cnn3-c2ccccc2)cc1 (stereo not drawn) [Compound 7j, 1-{4-[(1-Phenyl-1H-pyrazolo[3,4-d]pyrimidin-4-yl)amino]benzoyl}pyrrolidine-2-carboxylic acid] | 9.29 ± 0.2 | 11.2 ± 0.7 | 8.1 ± 0.2 | 6.19 ± 0.43 | 10.3 ± 1.2 | 8.19 ± 1.2 | > 50 |

The remaining lines, values behind:

| Compound | IC50 (human DHFR enzyme) | inhibition at 0.1 µM (human DHFR enzyme) [%] | inhibition at 1 µM (human DHFR enzyme) [%] | inhibition at 10 µM (human DHFR enzyme) [%] | inhibition at 100 µM (human DHFR enzyme) [%] | IC50 [1] [µM] | IC50 [2] [µM] | IC50 [3] [µM] | IC50 [4] [µM] | IC50 [5] [µM] | IC50 [6] [µM] | IC50 [7] [µM] |
| --- | --- | --- | --- | --- | --- | --- | --- | --- | --- | --- | --- | --- |
| O=C(O)CNC(=O)c1ccc(Nc2ncnc3c2cnn3-c2ccccc2)cc1 [Compound 7a, 2-{4-[(1-Phenyl-1H-pyrazolo[3,4-d]pyrimidin-4-yl)amino]benzamido}acetic acid] | 13.3 ± 0.24 µM | 12 | 30 | 57 | 81 | 19.4 ± 1.21 | 23 ± 1.03 | 28.2 ± 1.93 | 19.4 ± 1.56 | 15.5 ± 0.96 | 15.3 ± 1.29 | > 50 |
| CN(Cc1cnc2nc(N)nc(N)c2n1)c1ccc(C(=O)N[C@@H](CCC(=O)O)C(=O)O)cc1 [Methotrexate, methotrexate, reference compound] |  |  |  |  |  | 294.8 ± 0.51 | 42.3 ± 7.25 | 99.98 ± 0.22 | 29.1 ± 0.31 | 800.24 ± 0.16 | 66.11 ± 0.15 | > 50 |
| CC(NC(=O)c1ccc(Nc2ncnc3c2cnn3-c2ccccc2)cc1)C(=O)O (stereo not drawn) [Compound 7b, 2-{4-[(1-Phenyl-1H-pyrazolo[3,4-d]pyrimidin-4-yl)amino]benzamido}propanoic acid] | 42.5 ± 0.78 µM | 6.4 | 20 | 38 | 72 | 29.2 ± 1.9 | 34.2 ± 2.61 | 29.6 ± 1.91 | 31.2 ± 2.8 | 19.2 ± 1.87 | 35.7 ± 2.09 | > 50 |
| O=C(O)CCC(NC(=O)c1ccc(Nc2ncnc3c2cnn3-c2ccccc2)cc1)C(=O)O (stereo not drawn) [Compound 7e, 2-{4-[(1-Phenyl-1H-pyrazolo[3,4-d]pyrimidin-4-yl)amino]benzamido}pentanedioic acid] | 1.83 ± 0.04 µM | 28 | 57 | 72 | 89 | 13.1 ± 1.01 | 13.8 ± 1.14 | 15.3 ± 1.18 | 15.2 ± 1.15 | 16 ± 0.8 | 11.9 ± 1.1 | > 50 |
| O=C(NC(CS)C(=O)O)c1ccc(Nc2ncnc3c2cnn3-c2ccccc2)cc1 (stereo not drawn) [Compound 7g, 3-Mercapto-2-{4-[(1-phenyl-1H-pyrazolo[3,4-d]pyrimidin-4-yl)amino]benzamido}propanoic acid] | 1.28 ± 0.03 µM | 37 | 55 | 70 | 84 | 12.3 ± 1.2 | 13.2 ± 1.52 | 12.2 ± 1.2 | 15.2 ± 0.22 | 10.2 ± 0.92 | 10.8 ± 1.1 | > 50 |
| CCC(C)C(NC(=O)c1ccc(Nc2ncnc3c2cnn3-c2ccccc2)cc1)C(=O)O (stereo not drawn) [Compound 7d, 3-Methyl-2-{4-[(1-phenyl-1H-pyrazolo[3,4-d]pyrimidin-4-yl)amino]benzamido}pentanoic acid] | < 1 µM and 0.43 µM | 42 | 66 | 85 | 95 | 8.09 ± 0.51 | 9.99 ± 0.81 | 10.1 ± 1.01 | 11.2 ± 0.41 | 9.09 ± 0.71 | 5.51 ± 0.28 | > 50 |
| COc1cccc2c1C(=O)c1c(O)c3c(c(O)c1C2=O)C[C@@](O)(C(=O)CO)C[C@@H]3O[C@H]1C[C@H](N)[C@H](O)[C@H](C)O1 [Doxorubicin, reference compound] |  |  |  |  |  |  | 9.01 ± 0.09 |  | 7.23 ± 0.1 | 4.6 ± 0.44 | 4.25 ± 0.15 | > 50 |
| CC(C)C(NC(=O)c1ccc(Nc2ncnc3c2cnn3-c2ccccc2)cc1)C(=O)O (stereo not drawn) [Compound 7c, 3-Methyl-2-{4-[(1-phenyl-1H-pyrazolo[3,4-d]pyrimidin-4-yl)amino]benzamido}butanoic acid] | < 1 µM and ~0.61 µM and 0.61 µM | 39 | 65 | 80 | 94 | 9.39 ± 0.25 | 11.2 ± 0.34 | 10.6 ± 1.1 | 10.2 ± 1.01 | 12.2 ± 1.14 | 6.56 ± 0.18 | > 50 |
| O=C(NC(Cc1c[nH]cn1)C(=O)O)c1ccc(Nc2ncnc3c2cnn3-c2ccccc2)cc1 (stereo not drawn) [Compound 7i, 3-(1h-Imidazol-4-yl)-2-{4-[(1-phenyl-1H-pyrazolo[3,4-d]pyrimidin-4-yl)amino]benzamido}-propanoic acid] | < 1 µM and 0.82 µM | 35 | 63 | 80 | 94 | 10.9 ± 1.99 | 12.8 ± 2.01 | 13 ± 1.01 | 10.5 ± 3.01 | 9.26 ± 1.56 | 13.2 ± 1.21 | > 50 |
